Data published in patent US20110130384A1, “AMIDE COMPOUND” (TAKEDA PHARMACEUTICAL COMPANY LIMITED, priority 2008, published 2011).

Target: T1, human GPR52 (Homo sapiens, UniProt Q9Y2T5)
T1 construct: expressed in transfected cells; host or cells: CHO(dhfr-) cells
Assay: Increase of intracellular cAMP concentration in human GPR52-expressing CHO cell (AlphaScreen cAMP assay)
Assay type: cell-based
Conditions: 1 μM test compound, human GPR52-expressing CHO(dhfr-) cells, 37° C. for 30 min; intracellular cAMP with 1 μM Reference Example 124 = 100%, DMSO = 0%
Description: Increase of Intracellular cAMP Concentration in Human GPR52-Expressing CHO Cell
Using OptiPlate-384 (PerkinElmer Inc.), 1×10^4 human GPR52-expressing CHO(dhfr-) cells were incubated together with 1 μM of a test compound in an assay buffer (30 μL, HBSS (containing Ca^2+ and Mg^2+), 0.5% BSA, 100 μm IBMX, 100 μm Ro20-1724, 5 mM HEPES (pH 7.55)) at 37° C. for 30 min. Thereafter, according to the protocol of AlphaScreen cAMP Assay Kit (PerkinElmer Inc.), the intracellular cAMP concentration was measured by EnVision (PerkinElmer Inc.). The GPR52 agonist activity was calculated, assuming the intracellular cAMP concentration in the presence of 1 μM 3-(6-(2-(3,4-dimethoxyphenyl)ethoxy)pyridin-2-yl)-N-(2-pyrrolidin-1-ylethyl)benzamide (Reference Example 124) to be 100% and assuming the intracellular cAMP concentration when DMSO was added instead of the test compound to be 0%.

T1 sequence (Q9Y2T5 whole entry): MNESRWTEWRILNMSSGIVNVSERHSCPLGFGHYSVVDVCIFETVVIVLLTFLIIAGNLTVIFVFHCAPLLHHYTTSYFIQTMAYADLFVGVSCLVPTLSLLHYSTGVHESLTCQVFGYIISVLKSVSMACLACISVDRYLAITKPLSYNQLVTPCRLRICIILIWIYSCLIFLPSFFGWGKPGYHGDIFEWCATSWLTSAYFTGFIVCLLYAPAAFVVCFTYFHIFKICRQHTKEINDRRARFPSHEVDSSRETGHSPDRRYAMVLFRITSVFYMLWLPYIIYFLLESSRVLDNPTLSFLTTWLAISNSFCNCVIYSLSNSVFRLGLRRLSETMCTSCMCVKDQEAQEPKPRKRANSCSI

Row | Structure (SMILES) | GPR52 agonist activity (%)
1 | N#CCCNC(=O)c1cccc(-c2ccc3c(c2)C(c2ccc(Cl)cc2Cl)CC3)c1 (single isomer, unassigned; (+)) [Example 63, (+)-N-(2-cyanoethyl)-3-[3-(2,4-dichlorophenyl)-2,3-dihydro-1H-inden-5-yl]benzamide] | 66%
2 | N#CCCNC(=O)c1cccc(-c2ccc3c(c2)C(c2ccc(Cl)cc2Cl)CC3)c1 (single isomer, unassigned; (-)) [Example 62, (−)-N-(2-cyanoethyl)-3-[3-(2,4-dichlorophenyl)-2,3-dihydro-1H-inden-5-yl]benzamide] | 81%
3 | CN(C)CCNC(=O)c1cccc(-c2ccc3c(c2)N(c2ccc(Cl)cc2Cl)CC3)c1 [Example 1, 3-[1-(2,4-dichlorophenyl)-2,3-dihydro-1H-indol-6-yl]-N-[2-(dimethylamino)ethyl]benzamide] | 87%
4 | N#CCCNC(=O)c1cccc(-c2ccc3c(c2)N(c2ccc(Cl)cc2Cl)CC3)c1 [Example 2, N-(2-cyanoethyl)-3-[1-(2,4-dichlorophenyl)-2,3-dihydro-1H-indol-6-yl]benzamide] | 69%
5 | O=C(NCCO)c1cccc(-c2ccc3c(c2)N(c2ccc(Cl)cc2Cl)CC3)c1 [Example 3, 3-[1-(2,4-dichlorophenyl)-2,3-dihydro-1H-indol-6-yl]-N-(2-hydroxyethyl)benzamide] | 71%
6 | N#CCCNC(=O)c1cccc(-c2ccc3c(c2)N(c2cc(Cl)ccc2Cl)CC3)c1 [Example 4, N-(2-cyanoethyl)-3-[1-(2,5-dichlorophenyl)-2,3-dihydro-1H-indol-6-yl]benzamide] | 75%
7 | N#CCCNC(=O)c1cccc(-c2ccc3c(c2)N(c2ccc(Cl)c(Cl)c2)CC3)c1 [Example 6, N-(2-cyanoethyl)-3-[1-(3,4-dichlorophenyl)-2,3-dihydro-1H-indol-6-yl]benzamide] | 59%
8 | O=C(NCCO)c1cccc(-c2ccc3c(c2)N(c2cccc(Cl)c2Cl)CC3)c1 [Example 11, 3-[1-(2,3-dichlorophenyl)-2,3-dihydro-1H-indol-6-yl]-N-(2-hydroxyethyl)benzamide] | 74%
9 | CN(C)CCNC(=O)c1cccc(-c2ccc3c(c2)N(Cc2ccc(Cl)cc2Cl)CC3)c1 [Example 12, 3-[1-(2,4-dichlorobenzyl)-2,3-dihydro-1H-indol-6-yl]-N-[2-(dimethylamino)ethyl]benzamide] | 89%
10 | N#CCCNC(=O)c1cccc(-c2ccc3c(c2)N(Cc2ccc(Cl)cc2Cl)CC3)c1 [Example 13, N-(2-cyanoethyl)-3-[1-(2,4-dichlorobenzyl)-2,3-dihydro-1H-indol-6-yl]benzamide] | 60%
11 | N#CCCNC(=O)c1cccc(-c2ccc3c(c2)N(Cc2cc(Cl)cc(Cl)c2)CC3)c1 [Example 15, N-(2-cyanoethyl)-3-[1-(3,5-dichlorobenzyl)-2,3-dihydro-1H-indol-6-yl]benzamide] | 77%
12 | O=C(NCCO)c1cccc(-c2ccc3c(c2)N(Cc2cc(Cl)cc(Cl)c2)CC3)c1 [Example 16, 3-[1-(3,5-dichlorobenzyl)-2,3-dihydro-1H-indol-6-yl]-N-(2-hydroxyethyl)benzamide] | 84%
13 | COc1ccc(CCn2ccc3ccc(-c4cccc(C(=O)NCCN(C)C)c4)nc32)cc1OC [Example 25, 3-[1-[2-(3,4-dimethoxyphenyl)ethyl]-1H-pyrrolo[2,3-b]pyridin-6-yl]-N-[2-(dimethylamino)ethyl]benzamide] | 80%
14 | COc1ccc(CCn2ccc3ccc(-c4cccc(C(=O)NCCC#N)c4)nc32)cc1OC [Example 26, N-(2-cyanoethyl)-3-[1-[2-(3,4-dimethoxyphenyl)ethyl]-1H-pyrrolo[2,3-b]pyridin-6-yl]benzamide] | 62%
15 | N#CCCNC(=O)c1cccc(-c2ccc3c(n2)N(Cc2ccc(Cl)cc2Cl)CC3)c1 [Example 30, N-(2-cyanoethyl)-3-[1-(2,4-dichlorobenzyl)-2,3-dihydro-1H-pyrrolo[2,3-b]pyridin-6-yl]benzamide] | 72%
16 | N#CCCNC(=O)c1cccc(-c2ccc3c(n2)N(c2ccc(Cl)cc2Cl)CC3)c1 [Example 34, N-(2-cyanoethyl)-3-[1-(2,4-dichlorophenyl)-2,3-dihydro-1H-pyrrolo[2,3-b]pyridin-6-yl]benzamide] | 74%
17 | O=C(NC(CO)CO)c1cccc(-c2ccc3c(c2)C(c2ccc(Cl)cc2Cl)CC3)c1 (stereo not shown) [Example 65, 3-[3-(2,4-dichlorophenyl)-2,3-dihydro-1H-inden-5-yl]-N-[2-hydroxy-1-(hydroxymethyl)ethyl]benzamide] | 91%
18 | N#CCCNC(=O)c1cccc(-c2ccc3c(c2)C(Oc2ccc(Cl)cc2Cl)CC3)c1 (stereo not shown) [Example 73, N-(2-cyanoethyl)-3-[3-(2,4-dichlorophenoxy)-2,3-dihydro-1H-inden-5-yl]benzamide] | 73%

Continued, values first:

Row | GPR52 agonist activity (%) | Structure (SMILES)
19 | 75% | O=C(NCCO)c1cccc(-c2ccc3c(c2)N(c2cc(Cl)ccc2Cl)CC3)c1 [Example 5, 3-[1-(2,5-dichlorophenyl)-2,3-dihydro-1H-indol-6-yl]-N-(2-hydroxyethyl)benzamide]
20 | 67% | O=C(NCCO)c1cccc(-c2ccc3c(c2)N(c2ccc(Cl)c(Cl)c2)CC3)c1 [Example 7, 3-[1-(3,4-dichlorophenyl)-2,3-dihydro-1H-indol-6-yl]-N-(2-hydroxyethyl)benzamide]
21 | 59% | O=C(NCCO)c1cccc(-c2ccc3c(c2)N(c2cc(Cl)cc(Cl)c2)CC3)c1 [Example 9, 3-[1-(3,5-dichlorophenyl)-2,3-dihydro-1H-indol-6-yl]-N-(2-hydroxyethyl)benzamide]
22 | 65% | N#CCCNC(=O)c1cccc(-c2ccc3c(c2)N(c2cccc(Cl)c2Cl)CC3)c1 [Example 10, N-(2-cyanoethyl)-3-[1-(2,3-dichlorophenyl)-2,3-dihydro-1H-indol-6-yl]benzamide]
23 | 64% | O=C(NCCO)c1cccc(-c2ccc3ccn(Cc4ccc(Cl)cc4Cl)c3n2)c1 [Example 28, 3-[1-(2,4-dichlorobenzyl)-1H-pyrrolo[2,3-b]pyridin-6-yl]-N-(2-hydroxyethyl)benzamide]
24 | 76% | O=C(NCCO)c1cccc(-c2ccc3c(n2)N(Cc2ccc(Cl)cc2Cl)CC3)c1 [Example 29, 3-[1-(2,4-dichlorobenzyl)-2,3-dihydro-1H-pyrrolo[2,3-b]pyridin-6-yl]-N-(2-hydroxyethyl)benzamide]
25 | 62% | O=C(NCCCO)c1cccc(-c2ccc3c(n2)N(Cc2ccc(Cl)cc2Cl)CC3)c1 [Example 31, 3-[1-(2,4-dichlorobenzyl)-2,3-dihydro-1H-pyrrolo[2,3-b]pyridin-6-yl]-N-(3-hydroxypropyl)benzamide]
26 | 61% | O=C(NCCO)c1cccc(-c2ccc3ccn(-c4ccc(Cl)cc4Cl)c3n2)c1 [Example 33, 3-[1-(2,4-dichlorophenyl)-1H-pyrrolo[2,3-b]pyridin-6-yl]-N-(2-hydroxyethyl)benzamide]
27 | 81% | O=C(NCCO)c1cccc(-c2ccc3c(n2)N(c2ccc(Cl)cc2Cl)CC3)c1 [Example 35, 3-[1-(2,4-dichlorophenyl)-2,3-dihydro-1H-pyrrolo[2,3-b]pyridin-6-yl]-N-(2-hydroxyethyl)benzamide]
28 | 52% | N#CCCNC(=O)c1cccc(-c2ncc3ccn(Cc4ccc(Cl)cc4Cl)c3n2)c1 [Example 40, N-(2-cyanoethyl)-3-[7-(2,4-dichlorobenzyl)-7H-pyrrolo[2,3-d]pyrimidin-2-yl]benzamide]
29 | 79% | COc1ccc(CCn2cnc3ccc(-c4cccc(C(=O)NCCN5CCCC5)c4)nc32)cc1OC [Example 45, 3-[3-[2-(3,4-dimethoxyphenyl)ethyl]-3H-imidazo[4,5-b]pyridin-5-yl]-N-(2-pyrrolidin-1-ylethyl)benzamide]
30 | 63% | N#CCCNC(=O)c1cccc(-c2ccc3c(c2)N(c2ccc(Cl)cc2Cl)CCO3)c1 [Example 47, N-(2-cyanoethyl)-3-[4-(2,4-dichlorophenyl)-3,4-dihydro-2H-1,4-benzoxazin-6-yl]benzamide]
31 | 89% | CN(C)CCNC(=O)c1cccc(-c2ccc3c(c2)C(c2cc(Cl)ccc2Cl)CC3)c1 (stereo not shown) [Example 51, 3-[3-(2,5-dichlorophenyl)-2,3-dihydro-1H-inden-5-yl]-N-[2-(dimethylamino)ethyl]benzamide]
32 | 84% | O=C(NCCO)c1cccc(-c2ccc3c(c2)C(c2ccc(Cl)cc2Cl)CC3)c1 (stereo not shown) [Example 64, 3-[3-(2,4-dichlorophenyl)-2,3-dihydro-1H-inden-5-yl]-N-(2-hydroxyethyl)benzamide]
33 | 88% | C[S+]([O-])CCNC(=O)c1cccc(-c2ccc3c(c2)C(c2ccc(Cl)cc2Cl)CC3)c1 (stereo not shown) [Example 66, 3-[3-(2,4-dichlorophenyl)-2,3-dihydro-1H-inden-5-yl]-N-[2-(methylsulfinyl)ethyl]benzamide]
34 | 73% | CS(=O)(=O)CCNC(=O)c1cccc(-c2ccc3c(c2)C(c2ccc(Cl)cc2Cl)CC3)c1 (stereo not shown) [Example 67, 3-[3-(2,4-dichlorophenyl)-2,3-dihydro-1H-inden-5-yl]-N-[2-(methylsulfonyl)ethyl]benzamide]
